Test system: hepatocytes

Structure (SMILES)	morphological changes of 3D spheroids, pre-spheroid monolayer or 2D hepatocyte monolayer	effect on hepatocyte monolayer maintained on PET-Hybrid (soluble peptide 100 μM in culture medium)	toxicity to the hepatocytes (soluble peptide, treatment for 24 h)
NCCCCCCOC1O[C@H](CO)[C@H](O)[C@H](O)[C@H]1O (stereo partly drawn) [galactose ligands, 1-O-(6′-aminohexyl)-D-galactopyranoside]	did not induce any morphological changes		
N=C(N)NCCC[C@H](NC(=O)CN)C(=O)NCC(=O)N[C@@H](CC(=O)O)C(=O)N[C@@H](CO)C(=O)O [GRGDS]		destabilized the hepatocyte monolayer	slight toxicity
